Laboratory results taken from patent publication US12049615B2, “Systems and methods for electronically and optically monitoring biological samples” (Agilent Technologies, Inc., priority 2020, dated 2024).
“Also recorded” adds a separate entry of the source. Where a SMILES comes first, the peptide text is derived from it. The star is where a group is joined. Cbz = O=C(OCc1ccccc1)*

Assays:
[1] = test system: A549-Blue cells; assay: Real-time cell-substrate impedance monitoring of drug-induced apoptosis; format: cell-based; conditions: for change of impedance signal after drug addition: addition at the 25-hour time point, time- and dose-dependent
Protocol: (§1) Cell maintenance and assays were conducted at 37° C./5% CO2 in F-12K media (ATCC; catalog number 30-2004) containing 10% heat-inactivated FBS (Corning, catalog number 35016CV). While impedance was measured every 15 minutes, images were acquired once per hour. In each well, four fields of view were captured for each channel (brightfield, red, green, and blue). Exposure times were as follows: red (300 ms), green (300 ms), and blue (80 ms). The A549-Blue cell line, which stably expresses nuclear-localized blue fluorescent protein (BFP), was produced by transducing A549 cells (ATCC; catalog number CCL-185) with Agilent eLenti Blue (p/n 8711012) at a multiplicity of infection of 1. From day 2 to day 11 postinfection, 1 μg/mL puromycin was included in the growth medium to select for transductants. For real-time visualization of activated caspase 3, Agilent eCaspase 3 NucView 488 (p/n 8711005) was included in growth medium at a concentration of 5 μm. For real-time visualization of translocated phosphatidylserine, Agilent eAnnexin V Red (p/n 8711007) was included in growth medium at a concentration of 0.25 μg/mL. Agilent E-Plate VIEW microplates (p/n 00300601030) were also used. MG132 (Tocris; catalog number 1748/5) and staurosporine (Calbiochem; catalog number 569396) stocks were dissolved in DMSO.
A549-Blue cells (described above) were seeded into an E-PATE VIEW at a density of 10,000 cells/well. As the cells proliferate over the first day, they occupy an expanding surface area on the biosensor array, causing the impedance signal to rise steadily (FIG. 11A and FIG. 11B). If left untreated, the cells grow to confluence, saturating the biosensor array and giving a plateaued impedance signal. […] The kinetics of these drug-induced responses, and the overall shape of the impedance traces, are distinct for each compound. […] Although MG132 and staurosporine both induce apoptosis, they elicit distinct cellular behaviors en route to cell death, which becomes strikingly clear when real-time impedance is multiplexed with live cell imaging.

[2] = test system: A549-Blue cells; assay: Live cell imaging (blue nuclei, % confluence, caspase 3, annexin V) of drug-treated cells; format: cell-based; conditions: for total number of blue nuclei: four highest concentrations (MG132 1.9, 5.5, 16.7, 50 μm; staurosporine 0.125-1 μm, over the subsequent 60 hours)
Protocol: as §1
Although A549-Blue cells already cover most of the well bottom by the 26-hour time point, in the absence of drug, they continue proliferating for another 50 hours, packing cells together at higher density (FIG. 12A). Consistent with this, the impedance signal plateaus at roughly 30 hours while the total number of blue nuclei continues to increase until ˜80 hours (FIG. 12A). Blue nuclei count is Obtained by an image processing algorithm to count the number of blue objects in the blue-fluorescent image. Each blue nuclei nucleus corresponds to an A549 cell as it was transduced to expresses nuclear-localized blue fluorescent protein. As such the number of blue nuclei in a well correspond to the number of viable A549-blue cells present in the well. […] Although, over time, these nuclei shrink in size and begin clustering together, they largely remain intact, explaining why the number of blue nuclei stays fairly constant in FIG. 12C. The above coupling of impedance with imaging clearly provides a more complete and nuanced understanding of drug-mediated A549 cell killing than would be possible using either technique alone. Moving beyond simple cell counts, we next probed the kinetics of biochemical phenomena that are specific to the apoptotic killing pathway.
Along with impedance and blue nuclei counts, the induction of apoptosis by MG132 was also tracked by percent cellular confluence, caspase 3 activation (causing cells to fluoresce green), and phosphatidylserine translocation (causing cells to fluoresce red). […] The bold white arrows in the panels for the 20- and 40-hour time points highlight large membrane blebs that contain phosphatidylserine in their outer leaflet.
Next, the continuous response of A549-Blue cells to MG132 was plotted using each of the image-based readouts. Blue nuclei counts (FIG. 14A) (FIG. 14A) display a dependency on drug concentration that closely reflects the impedance responses seen in (FIG. 11A), Despite the extensive apoptotic response, throughout the course of this assay the % cellular confluence never drops below 50% (FIG. 14B), where the cell confluence number is derived from bright field images through image processing algorithms. This is consistent with the fact that, unlike in vivo contexts, where apoptotic cells and their debris are removed through phagocytosis, in vitro, a large percentage of apoptotic cells continue to occupy the well bottom (FIG. 12B). […] Considering the number of cells that were seeded, their rate of growth, and the percentage of cells that display apoptotic markers (FIG. 13), the output numbers in FIGS. 14A-C are consistent with expectations. […]

[3] = test system: A549-Blue cells; assay: EC50 from dose response curves of impedance and image-based readouts (area under the curve); conditions: area under the curve from drug addition to 60 hours after; four readouts (normalized cell index, green cell number, red cell number, blue nuclei number); four-parameter logistic fit
Protocol: FIG. 16 provides a table and graphs showing the use of dose response curves to calculate EC50. Using real-time impedance (as represented by normalized cell index) data (FIG. 11A) and live cell imaging (green cell number, red cell number and blue nuclei number) data (FIGS. 14A-C), area under the curve was calculated, and is plotted here as a function of MG132 concentration. Data were fit to a four-parameter logistic equation to determine the EC50.
Using the impedance and image-based readouts presented in Examples II-IV, the EC50 for MG132 was calculated. The area under the curve, spanning from the time of drug addition to 60 hours after drug addition, was plotted as a function of MG132 concentration to yield the dose response curves seen in FIG. 16. The quality of the fitting for the four different readouts is quite good, with R2 values ranging from 0.96 to 0.98. The calculated EC50 values range from 0.86 to 3.0 μm, which is consistent with values reported in the literature. See Han, Y. H. et al. The Effect of MG132, a Proteasome Inhibitor on HeLa Cells in Relation to Cell Growth, Reactive Oxygen Species and GSH. Oncol. Rep. 2009, 22(1), 215-21.

For `CC(C)C[C@@H](C=O)NC(=O)[C@H](CC(C)C)NC(=O)[C@H](CC(C)C)NC(=O)OCc1ccccc1` [MG132] (Cbz-Leu-Leu-Leu-aldehyde), the “change of impedance signal after drug addition” value [1] was “marked decrease”, the “impedance signal at high concentrations” value ([1]; high concentrations of MG132 (FIG. 11A)) was “drop to zero; also recorded: dropped to zero” and the “number of caspase 3-activated cells exceeds number of phosphatidylserine translocated cells by” value ([2]; 50 μM MG132, 40 hours following the first 20 hours of drug treatment) was “approximately 20%”. The “time at which the number of blue nuclei begins to decrease” value ([2]; after drug addition, 50 μM MG132 (FIG. 15), same time caspase 3 activation and phosphatidylserine translocation become detectable) was ~10 h, the “number of caspase 3 positive (fluorescence green) objects” value ([2]; dependent on MG132 concentration (FIG. 14C)) was “increase over time” and the “number of annexin V positive (fluorescent red) objects” value ([2]; dependent on MG132 concentration (FIG. 14D)) was “increase over time”. For the same compound, the “total number of blue nuclei” value [2] was “decreases over time” and the EC50 [3] was 860 to 3000 nM.

For `CN[C@@H]1C[C@H]2O[C@@](C)([C@@H]1OC)n1c3ccccc3c3c4c(c5c6ccccc6n2c5c31)C(=O)NC4` [staurosporine], the “change of impedance signal after drug addition” value [1] was “marked decrease”, the “impedance response at the four highest concentrations” value ([1]; staurosporine 0.125, 0.250, 0.500, and 1 μm) was “plummet within the first few minutes” and the “total number of blue nuclei” value [2] was “modest impact”. For the same compound, the “cell morphology by live cell imaging” value ([2]; one hour after staurosporine addition) was “shrunk so severely that their cytoplasm is barely visible; also recorded: massive cytoplasmic shrinkage”.
